Reference: paper PMC11206290, “Study of the Lipophilicity and ADMET Parameters of New Anticancer Diquinothiazines with Pharmacophore Substituents” (Pharmaceuticals, 2024)
pIC50: −log10 of the molar value.

Legend:
[1] = RP-TLC lipophilicity (RP-18 plates, acetone–TRIS buffer pH 7.4); details: for C0: C0 = −RM0/b; for RM0: RP-18, acetone–TRIS buffer pH 7.4, extrapolated to zero acetone concentration; for b / -b: slope of RM = RM0 + bC; for b: compounds 1–15; for -b: standards I–V
Experimental: (§1) RP-18 plates were used as the stationary phase, while organic modifiers containing acetone were used as the mobile phase. The linear relationship between RM0 and acetone concentration was determined on the basis of Equation (2) (Table 2). In addition to this, thanks to the relationship observed between RM0 and the slope of these linear plots (b), the lipophilicity parameter C0 was also determined (Table 2).
(§2) All chromatographic experiments were performed on a silica gel 60 RP-18 F254S (10 cm × 10 cm) RP-TLC plate (Merck, Darmstadt, Germany). The mobile phase was prepared by mixing the respective amount of aqueous TRIS (tris(hydroxymethyl)aminomethane) buffer, pH = 7.4 (ionic strength 0.2 M), to meet physiological conditions and acetone in a range from 50 to 80% (v/v) in increments of 5%. […] Before plate development, the chromatographic chambers were saturated with the mobile phase for 0.5 h. […] Each chromatographic experiment was run in triplicate, and then mean values of the retardation factor, i.e., RF values, were used to determine the RMW values of the compounds.
(§3) Next, the chromatographic data in the form of RM0 and coefficient b were used to calculate the lipophilicity parameter C0 [56] from the following Equation (3):(3) C0=−RM0/b

[2] = tested on: lung cancer A549 cell line; set-up: method as in PMID 30981160; details: A549 cell line ref 24; cited from earlier work
[3] = tested on: human lung carcinoma A549; set-up: method as in PMID 36014495; details: A549 ref 25; cited from earlier work
[4] = tested on: non-small lung carcinoma H1299; set-up: method as in PMID 36014495; details: H1299 ref 25; cited from earlier work
NHDF cells = tested on: NHDF cells; set-up: method as in PMID 36014495; details: NHDF cells at IC50 doses against A549 or H1299 cells ref 25; cited from earlier work
BEAS-2B cells = tested on: BEAS-2B cells; set-up: method as in PMID 36014495; details: BEAS-2B cells at IC50 doses against A549 or H1299 cells ref 25; cited from earlier work
[5] = tested on: glioblastoma SNB-19 cell line; set-up: method as in PMID 30981160; details: SNB-19 cell line ref 24; cited from earlier work
BCL-2 expression = tested on: BCL-2 expression; set-up: method as in PMID 30981160; details: RT-QPCR, A549 and SNB-19 ref 24; cited from earlier work
BAX expression = tested on: BAX expression; set-up: method as in PMID 30981160; details: RT-QPCR, cancer cell lines ref 24; cited from earlier work

Experimental for physchem: as §1, §2, §3

Row | Compound | chromatographic logP (physchem) | C0 [1] | RM0 [1] | b [1] | further results
1 | CCN(CC)CCN1c2cnc3ccccc3c2Sc2cc3ccccc3nc21 [Compound 1, 7-(2'-Diethylaminoethyl)diquino[3,2-b;3 ',4'-e]thiazine] | 4.64 | 0.7233 | 3.45 | −4.77 | –
2 | CN(C)CCCN1c2cnc3ccccc3c2Sc2cc3ccccc3nc21 [Compound 2, 7-(3'-Dimethylaminopropyl)diquino[3,2-b;3 ',4'-e]thiazine] | 4.08 | 0.7359 | 3.01 | −4.09 | pIC50 [2]: 6.52; In vitro anticancer activity [3]: significant in vitro anticancer activity; In vitro anticancer activity [4]: significant in vitro anticancer activity; Lethal effect (NHDF cells): weak lethal effect; Lethal effect (BEAS-2B cells): weak lethal effect
3 | c1ccc2nc3c(cc2c1)Sc1c(cnc2ccccc12)N3CCN1CCCC1 [Compound 3, 7-(1'-Pyrolidinylethyl)diquino[3,2-b;3 ',4'-e]thiazine] | – | 0.7210 | 3.05 | −4.23 | –
4 | c1ccc2nc3c(cc2c1)Sc1c(cnc2ccccc12)N3CCN1CCCCC1 [Compound 4, 7-(1'-Piperidinylethyl)diquino[3,2-b;3 ',4'-e]thiazine] | 4.68 | 0.7117 | 3.48 | −4.89 | –
5 | CN1CCCCC1CCN1c2cnc3ccccc3c2Sc2cc3ccccc3nc21 (stereo not drawn) [Compound 5, 7-(1'-M ethyl-2 '-piperydinylethyl)diquino[3,2-b;3 ',4'-e]thiazine] | 4.89 | 0.7082 | 3.64 | −5.14 | –
6 | CCN(CC)CCN1c2ccc3ncccc3c2Sc2cc3ccccc3nc21 [Compound 6, 7-(2'-Diethylaminoethyl)diquino[3,2-b;6 ',5'-e]thiazine] | 4.94 | 0.7588 | 3.68 | −4.85 | –
7 | CN(C)CCCN1c2ccc3ncccc3c2Sc2cc3ccccc3nc21 [Compound 7, 7-(3'-Dimethylaminopropyl)diquino[3,2-b;6 ',5'-e]thiazine] | 4.46 | 0.7627 | 3.31 | −4.34 | –
8 | c1ccc2nc3c(cc2c1)Sc1c(ccc2ncccc12)N3CCN1CCCC1 [Compound 8, 7-(1'-Pyrolidinylethyl)diquino[3,2-b;6 ',5'-e]thiazine] | – | 0.7565 | 3.48 | −4.60 | pIC50 [5]: 6.52; Expression of BCL-2 (BCL-2 expression): markedly reduced; Expression of BAX (BAX expression): markedly reduced
9 | c1ccc2nc3c(cc2c1)Sc1c(ccc2ncccc12)N3CCN1CCCCC1 [Compound 9, 7-(1'-Piperidinylethyl)diquino[3,2-b;6 ',5'-e]thiazine] | 4.95 | 0.7562 | 3.69 | −4.88 | –
10 | CN1CCCCC1CCN1c2ccc3ncccc3c2Sc2cc3ccccc3nc21 (stereo not drawn) [Compound 10, 7-(1'-M ethyl-2 '-piperydinylethyl)diquino[3,2-b;6 ',5'-e]thiazine] | 5.13 | 0.7599 | 3.83 | −5.04 | –
11 | CCN(CC)CCN1c2nc3ccccc3cc2Sc2ccc3cccnc3c21 [Compound 11, 14-(2'-Diethylaminoethyl)diquino[3,2-b;8 ',7'-e]thiazine] | 4.84 | 0.7579 | 3.60 | −4.75 | –
12 | CN(C)CCCN1c2nc3ccccc3cc2Sc2ccc3cccnc3c21 [Compound 12, 14-(3'-Dimethylaminopropyl)diquino[3,2-b;8 ',7'-e]thiazine] | 4.28 | 0.7458 | 3.17 | −4.25 | –
13 | c1ccc2nc3c(cc2c1)Sc1ccc2cccnc2c1N3CCN1CCCC1 [Compound 13, 14-(1'-Pyrolidinylethyl)diquino[3,2-b;8 ',7'-e]thiazine] | 4.36 | 0.7672 | 3.23 | −4.21 | –
14 | c1ccc2nc3c(cc2c1)Sc1ccc2cccnc2c1N3CCN1CCCCC1 [Compound 14, 14-(1'-Piperidinylethyl)diquino[3,2-b;8 ',7'-e]thiazine] | 4.85 | 0.7697 | 3.61 | −4.69 | –
15 | CN1CCCCC1CCN1c2nc3ccccc3cc2Sc2ccc3cccnc3c21 (stereo not drawn) [Compound 15, 14-(1'-M ethyl-2 '-piperydinylethyl)diquino[3,2-b;8 ',7'-e]thiazine] | 5.12 | 0.7625 | 3.82 | −5.01 | –
16 | CC(=O)Nc1ccccc1 [Standard I, acetanilide, reference compound] | – | – | 0.78 | – | –
17 | O=C(O)c1ccccc1 [Standard II, benzoic acid, reference compound] | – | – | 1.16 | – | -b [1]: 0.0247
18 | c1ccc2cc3ccccc3cc2c1 [Standard IV, anthracene, reference compound] | – | – | 3.33 | – | -b [1]: 0.0412
19 | Clc1ccc(C(c2ccc(Cl)cc2)C(Cl)(Cl)Cl)cc1 [Standard V, p,p′-DDT, reference compound] | – | – | 4.69 | – | –
